Measurements taken from patent US20260042747A1, “KIT INHIBITORS, COMPOUNDS, PHARMACEUTICAL COMPOSITIONS, AND METHODS OF USE THEREOF” (Alivexis, Inc., priority 2022, published 2026).
Structures can show the parent of a compound that is named as a salt.

Molecular target: recombinant human KIT tyrosine kinase protein (Homo sapiens (Human), UniProt P10721)
Assay: KIT tyrosine kinase assay (ADP-Glo)
Type: biochemical
Settings: Table 98
Experimental: An in vitro assay utilizing the recombinant human KIT tyrosine kinase protein was developed to measure compound inhibition of KIT. KIT tyrosine kinase activity was measured by the ADP-Glo Kinase Assay system with poly […]) peptide substrate. Kinase Assay was performed in white 384-well plates and the luminescence was measured by Victor X5 Multilabel Counter (Perkin Elmer). Recombinant intracellular domain of human KIT protein was purchased from Carna Biosciences (Kobe, Japan). Poly […]) peptide was purchased from Sigma-Aldrich (St. Louis, Missouri, USA). ADP-Glo Kinase Assay reagent was purchased from Promega (Madison, Wisconsin, USA). Each test compound was dissolved in 100% DMSO to prepare 10 mM stock solutions. […] After the preincubation, 3 μL of substrate/ATP mixture was added and incubated for 1 hour at room temperature. The tyrosine phosphorylation by KIT kinase was quantified by ADP-Glo kinase assay kit following the manufacturer's protocol. Briefly, the phosphorylation reaction was terminated by adding 10 μL ADP-Glo reagent and incubated for 60 minutes at room temperature. 20 μL of Kinase Detection Reagent was added to each well and luminescence was measured by plate reader. […] Half maximal inhibitory concentration (IC50) was calculated by a Four […] Logistic Regression model using GraphPad Prism (GraphPad Software). The value without recombinant KIT protein and without test compound was used as a negative control (assay background).

Sequence of recombinant human KIT tyrosine kinase protein (P10721 546-976): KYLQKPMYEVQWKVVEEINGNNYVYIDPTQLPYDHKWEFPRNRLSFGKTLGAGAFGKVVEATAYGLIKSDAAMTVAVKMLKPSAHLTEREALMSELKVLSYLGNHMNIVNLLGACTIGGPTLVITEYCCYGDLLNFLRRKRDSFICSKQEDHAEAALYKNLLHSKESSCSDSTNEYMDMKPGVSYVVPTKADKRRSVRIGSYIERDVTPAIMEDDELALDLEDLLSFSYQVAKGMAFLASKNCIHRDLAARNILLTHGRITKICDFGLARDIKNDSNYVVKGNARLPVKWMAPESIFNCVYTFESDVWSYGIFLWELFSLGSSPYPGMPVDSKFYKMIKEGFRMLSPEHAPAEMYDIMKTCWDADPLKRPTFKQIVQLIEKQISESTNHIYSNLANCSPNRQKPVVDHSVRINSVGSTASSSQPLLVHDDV

IC50	Structure (SMILES)
3200 nM	Cn1c(=O)[nH]c2cc(C(=O)NCc3cnc(Oc4ccc(F)cc4)s3)ccc21 [Compound 5, N-((2-(4-Fluorophenoxy)thiazol-5-yl)methyl)-1-methyl-2-oxo-2,3-dihydro-1H-benz imidazole-5-carboxamide]
190 nM	O=C(NCc1ccc(Nc2ccc(F)cc2)nc1)c1ccc2[nH]c(=O)[nH]c2c1 [Compound 8, N-((6-((4-Fluorophenyl)amino)pyridin-3-yl)methyl)-2-oxo-2,3-dihydro-1H-benzimidazole-5-carboxamide trifluoroacetate]
40 nM	C[C@H](NC(=O)c1ccc2c(c1)[nH]c(=O)n2C)c1ccc(N(C)c2ccc(F)cc2)nc1 [Compound 13, (S)—N-(1-(6-((4-Fluorophenyl)(methyl)amino)pyridin-3-yl)ethyl)-1-methyl-2-oxo-2,3-d ihydro-1H-benzimidazole-5-carboxamide]
61 nM	Cn1c(=O)[nH]c2cc(C(=O)NCc3ccc(C(F)c4ccc(F)cc4)nc3)ccc21 (centres unmarked) [Compound 16, N-((6-(Fluoro(4-fluorophenyl)methyl)pyridin-3-yl)methyl)-1-methyl-2-oxo-2,3-dihydro-1H-benzimidazole-5-carboxamide]
660 nM	Cn1c(=O)[nH]c2cc(C(=O)NCc3cnc4c(c3)ncn4-c3c(F)cccc3F)ccc21 [Compound 21, N-((3-(2,6-Difluorophenyl)-3H-imidazo[4,5-b]pyridin-6-yl)methyl)-1-methyl-2-oxo-2,3-dihydro-1H-benzimidazole-5-carboxamide trifluoroacetate]
460 nM	Cn1c(=O)[nH]c2cc(C(=O)NCc3ccc(Oc4cccc(C#N)c4)nc3)ccc21 [Compound 22, N-((6-(3-Cyanophenoxy)pyridin-3-yl)methyl)-1-methyl-2-oxo-2,3-dihydro-1H-benzimid azole-5-carboxamide trifluoroacetate]
78 nM	Cn1c(=O)[nH]c2cc(C(=O)NCc3ccc(N(c4ccc(F)cc4)C4CC4)nc3)ccc21 [Compound 23, N-((6-(Cyclopropyl(4-fluorophenyl)amino)pyridin-3-yl)methyl)-1-methyl-2-oxo-2,3-dihy dro-1H-benzimidazole-5-carboxamide]
360 nM	Cn1c(=O)[nH]c2cc(C(=O)NCc3cnc(NC4CCC(F)(F)CC4)s3)ccc21 [Compound 25, N-((2-((4,4-Difluorocyclohexyl)amino)thiazol-5-yl)methyl)-1-methyl-2-oxo-2,3-dihydro-1H-benzimidazole-5-carboxamide]
270 nM	CN1CCN(Cc2cccc(N(C)c3ccc(CNC(=O)c4ccc5c(c4)[nH]c(=O)n5C)cn3)c2)CC1 [Compound 26, 1-Methyl-N-((6-(methyl(3-((4-methylpiperazin-1-yl)methyl)phenyl)amino)pyridin-3-yl)methyl)-2-oxo-2,3-dihydro-1H-benzimidazole-5-carboxamide trifluoroacetate]
74 nM	CC(NC(=O)c1ccc2c(c1)[nH]c(=O)n2C)c1ccc(Oc2ccc(F)cc2F)nc1 (centres unmarked) [Compound 27, N-(1-(6-(2,4-Difluorophenoxy)pyridin-3-yl)ethyl)-1-methyl-2-oxo-2,3-dihydro-1H-benzi midazole-5-carboxamide]

Structure (SMILES)	IC50
C[C@H](NC(=O)c1ccc2c(c1)[nH]c(=O)n2C)c1ccc(Oc2ccc(F)c(F)c2)nc1 [Compound 7, (S)—N-(1-(6-(3,4-Difluorophenoxy)pyridin-3-yl)ethyl)-1-methyl-2-oxo-2,3-dihydro-1H-benzimidazole-5-carboxamide]	40 nM
CN1CCC(N(C)c2ccc(CNC(=O)c3ccc4c(c3)[nH]c(=O)n4C)cn2)CC1 [Compound 24, 1-Methyl-N-((6-(methyl(1-methylpiperidin-4-yl)amino)pyridin-3-yl)methyl)-2-oxo-2,3-dihydro-1H-benzimidazole-5-carboxamide]	340 nM
Cn1c(=O)[nH]c2cc(C(=O)NCc3ccc(Oc4ccc(F)c(F)c4)nc3)ccc21 [Example 37]	310 nM

Same assay, conditions: Table 99

IC50	Structure (SMILES)
1040 nM	CC(NC(=O)c1ccc2c(c1)[nH]c(=O)n2C)c1ccc(N(C)C(C)C)nc1 (single isomer, unassigned) [130 Peak 2]
